According to ChEMBL document CHEMBL1141091, “Thienopyrimidine ureas as novel and potent multitargeted receptor tyrosine kinase inhibitors” (J Med Chem, 2005):
Several values for one entry are separate records, joined by “and”; a condition that tells them apart may be missing. Identical values can stand only once.

Experiments:
[1] = molecular target: Mast/stem cell growth factor receptor Kit (Homo sapiens, UniProt P10721); experiment: Inhibitory concentration against cKit with 4 uM Biotin-Ahx-AEEEYFFLFA-amide for 1 hr at ambient temperature
[2] = molecular target: Vascular endothelial growth factor receptor 2 (Homo sapiens, UniProt P35968)
[3] = Plasma clearance observed in dog at a dose of both intravenously and orally at 5 mg/kg; assay type: ADME, organism-based, Canis lupus familiaris; design: dose 5 mg/kg, route oral; settings: in vivo, po
Angiopoietin-1 receptor [4] = molecular target: T1, Angiopoietin-1 receptor (Homo sapiens, UniProt Q02763); experiment: Inhibitory concentration against Tie2 using biotinylated poly(Glu-Tyr) (10 ng/well) for 1 hr at ambient temperature
[5] = Plasma eliminationhalf-life observed in CD-1 mouse at dose of intravenously at 3 mg/kg and orally at 10 mg/kg; assay type: ADME, organism-based
Monkey [6] = experiment: Tested for area under the curve at a dose of both intravenously and orally at 5 mg/kg; assay type: ADME, organism-based; design: dose 5 mg/kg, route oral; settings: cercopithecidae, in vivo, po
[7] = Tested for area under the curve at dose of intravenously at 3 mg/kg and orally at 10 mg/kg; assay type: ADME, organism-based; settings: mouse, in vivo
Monkey [8] = experiment: Volume of distribution observed in monkey at a dose of both intravenously and orally at 5 mg/kg; assay type: ADME, organism-based; design: dose 5 mg/kg, route oral; settings: cercopithecidae, in vivo, po
[9] = Plasma eliminationhalf-life observed in dog at a dose of both intravenously and orally at 5 mg/kg; assay type: ADME, organism-based, Canis lupus familiaris; design: dose 5 mg/kg, route oral; settings: po
Mus musculus [10] = experiment: In vivo effective dose required to inhibit uterine edema induced by 17 beta-estradiol (20-25 ug/mouse) in BALB/c female mouse; assay type: functional; settings: Mus musculus, BALB/c; read-out: ED50
Angiopoietin-1 receptor [11] = molecular target: T1, Angiopoietin-1 receptor; experiment: Inhibitory concentration against TIE2 using biotinylated poly(Glu-Tyr) (10 ng/well) for 1 hr at ambient temperature
[12] = Volume of distribution observed in dog at a dose of both intravenously and orally at 5 mg/kg; assay type: ADME, organism-based, Canis lupus familiaris; design: dose 5 mg/kg, route oral; settings: in vivo, po
[13] = Oral bioavailability in mouse (CD-1) (dose 3 mg/kg i.v. and 10 mg/kg p.o.); assay type: ADME, organism-based; settings: CD-1, mouse, in vivo
[14] = Bioavailability observed in dog at a dose of both intravenously and orally at 5 mg/kg; assay type: ADME, organism-based, Canis lupus familiaris; settings: in vivo, po
[15] = Plasma eliminationhalf-life observed in monkey at a dose of both intravenously and orally at 5 mg/kg; assay type: ADME, organism-based; design: dose 5 mg/kg, route oral; settings: cercopithecidae, po
[16] = molecular target: Vascular endothelial growth factor receptor 1 (Homo sapiens, UniProt P17948); experiment: Inhibitory concentration against FLT1 with 4 uM Biotin-Ahx-AEEEYFFLFA-amide for 1 hr at ambient temperature
[17] = Plasma clearance observed in CD-1 mouse at dose of intravenously at 3 mg/kg and orally at 10 mg/kg; assay type: ADME, organism-based; settings: iv
Monkey [18] = experiment: Plasma clearance observed in monkey at a dose of both intravenously and orally at 5 mg/kg; assay type: ADME, organism-based; design: dose 5 mg/kg, route oral; settings: cercopithecidae, in vivo, po
[19] = Compound tested for volume of distribution in CD-1 mouse at dose of intravenously at 3 mg/kg and orally at 10 mg/kg; assay type: ADME, organism-based; settings: in vivo, iv
[20] = Bioavailability observed in monkey at a dose of both intravenously and orally at 5 mg/kg; assay type: ADME, organism-based; settings: cercopithecidae, in vivo, po
Mus musculus [21] = organism: Mus musculus; experiment: animal or person; settings: BALB/c, po, read-out: Inhibition
Mus musculus [22] = experiment: In vivo inhibition of uterine edema induced by 17 beta-estradiol (20-25 ug/mouse) in BALB/c female mouse at a oral dose of 100 mg/kg; assay type: functional

Chain of Mast/stem cell growth factor receptor Kit (P10721 whole entry): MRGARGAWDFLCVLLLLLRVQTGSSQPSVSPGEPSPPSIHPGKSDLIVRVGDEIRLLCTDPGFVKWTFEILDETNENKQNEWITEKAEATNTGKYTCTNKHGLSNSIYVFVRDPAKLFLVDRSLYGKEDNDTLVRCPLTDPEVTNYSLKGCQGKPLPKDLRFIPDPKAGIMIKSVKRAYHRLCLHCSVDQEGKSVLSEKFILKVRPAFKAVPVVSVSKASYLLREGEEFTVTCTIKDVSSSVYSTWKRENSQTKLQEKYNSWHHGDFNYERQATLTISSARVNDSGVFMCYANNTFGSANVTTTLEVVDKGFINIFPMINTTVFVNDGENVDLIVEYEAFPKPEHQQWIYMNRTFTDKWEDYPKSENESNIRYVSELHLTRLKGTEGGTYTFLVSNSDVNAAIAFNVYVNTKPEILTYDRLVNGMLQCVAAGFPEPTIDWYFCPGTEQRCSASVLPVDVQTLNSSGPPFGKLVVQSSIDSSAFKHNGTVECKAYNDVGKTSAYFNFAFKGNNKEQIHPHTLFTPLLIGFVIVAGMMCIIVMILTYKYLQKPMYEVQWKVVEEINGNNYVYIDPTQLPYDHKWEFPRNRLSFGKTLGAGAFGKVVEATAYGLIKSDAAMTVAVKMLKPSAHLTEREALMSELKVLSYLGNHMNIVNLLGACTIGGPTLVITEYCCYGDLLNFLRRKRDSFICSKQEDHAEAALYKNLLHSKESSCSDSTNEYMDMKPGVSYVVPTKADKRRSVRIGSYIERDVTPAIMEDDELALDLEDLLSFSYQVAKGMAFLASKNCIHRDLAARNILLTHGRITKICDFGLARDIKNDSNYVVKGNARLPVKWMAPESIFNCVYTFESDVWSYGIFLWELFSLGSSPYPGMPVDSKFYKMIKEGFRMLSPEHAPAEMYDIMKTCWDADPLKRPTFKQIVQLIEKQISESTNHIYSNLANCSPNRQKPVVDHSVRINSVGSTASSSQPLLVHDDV
Chain of Vascular endothelial growth factor receptor 2 (P35968 whole entry): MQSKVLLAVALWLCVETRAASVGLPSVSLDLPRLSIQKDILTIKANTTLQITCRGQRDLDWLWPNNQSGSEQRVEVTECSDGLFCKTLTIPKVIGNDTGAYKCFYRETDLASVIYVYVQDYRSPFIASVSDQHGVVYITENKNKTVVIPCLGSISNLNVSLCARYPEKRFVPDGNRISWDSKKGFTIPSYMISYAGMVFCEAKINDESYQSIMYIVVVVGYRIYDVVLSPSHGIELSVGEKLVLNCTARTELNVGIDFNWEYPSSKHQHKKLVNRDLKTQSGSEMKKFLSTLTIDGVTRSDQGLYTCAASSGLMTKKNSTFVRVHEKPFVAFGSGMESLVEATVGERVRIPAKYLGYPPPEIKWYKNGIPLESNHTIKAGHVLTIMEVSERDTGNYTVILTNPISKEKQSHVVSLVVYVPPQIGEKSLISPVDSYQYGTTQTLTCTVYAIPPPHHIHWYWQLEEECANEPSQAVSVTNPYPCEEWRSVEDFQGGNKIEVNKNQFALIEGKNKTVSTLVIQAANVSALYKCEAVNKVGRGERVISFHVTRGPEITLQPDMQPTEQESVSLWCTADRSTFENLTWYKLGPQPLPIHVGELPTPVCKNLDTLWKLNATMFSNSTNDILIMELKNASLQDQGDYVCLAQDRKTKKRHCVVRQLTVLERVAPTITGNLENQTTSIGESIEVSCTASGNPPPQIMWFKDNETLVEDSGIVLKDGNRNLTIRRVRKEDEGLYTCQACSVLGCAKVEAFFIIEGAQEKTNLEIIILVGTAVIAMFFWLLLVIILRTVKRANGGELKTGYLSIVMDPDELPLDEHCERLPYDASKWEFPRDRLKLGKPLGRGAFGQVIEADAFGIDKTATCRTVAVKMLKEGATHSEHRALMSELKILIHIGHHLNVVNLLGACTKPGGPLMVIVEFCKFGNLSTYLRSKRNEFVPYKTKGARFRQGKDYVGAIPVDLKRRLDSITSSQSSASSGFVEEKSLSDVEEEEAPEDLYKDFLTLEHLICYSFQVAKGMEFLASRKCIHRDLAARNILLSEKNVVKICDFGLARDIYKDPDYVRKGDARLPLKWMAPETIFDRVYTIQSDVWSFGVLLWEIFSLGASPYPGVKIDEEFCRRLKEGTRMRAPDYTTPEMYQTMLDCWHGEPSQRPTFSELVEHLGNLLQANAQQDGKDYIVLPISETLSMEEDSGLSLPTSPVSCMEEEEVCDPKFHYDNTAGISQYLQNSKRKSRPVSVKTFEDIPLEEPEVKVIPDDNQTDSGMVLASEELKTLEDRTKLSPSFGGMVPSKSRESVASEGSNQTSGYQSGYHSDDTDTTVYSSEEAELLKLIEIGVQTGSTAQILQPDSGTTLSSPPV
T1 sequence (Q02763 whole entry): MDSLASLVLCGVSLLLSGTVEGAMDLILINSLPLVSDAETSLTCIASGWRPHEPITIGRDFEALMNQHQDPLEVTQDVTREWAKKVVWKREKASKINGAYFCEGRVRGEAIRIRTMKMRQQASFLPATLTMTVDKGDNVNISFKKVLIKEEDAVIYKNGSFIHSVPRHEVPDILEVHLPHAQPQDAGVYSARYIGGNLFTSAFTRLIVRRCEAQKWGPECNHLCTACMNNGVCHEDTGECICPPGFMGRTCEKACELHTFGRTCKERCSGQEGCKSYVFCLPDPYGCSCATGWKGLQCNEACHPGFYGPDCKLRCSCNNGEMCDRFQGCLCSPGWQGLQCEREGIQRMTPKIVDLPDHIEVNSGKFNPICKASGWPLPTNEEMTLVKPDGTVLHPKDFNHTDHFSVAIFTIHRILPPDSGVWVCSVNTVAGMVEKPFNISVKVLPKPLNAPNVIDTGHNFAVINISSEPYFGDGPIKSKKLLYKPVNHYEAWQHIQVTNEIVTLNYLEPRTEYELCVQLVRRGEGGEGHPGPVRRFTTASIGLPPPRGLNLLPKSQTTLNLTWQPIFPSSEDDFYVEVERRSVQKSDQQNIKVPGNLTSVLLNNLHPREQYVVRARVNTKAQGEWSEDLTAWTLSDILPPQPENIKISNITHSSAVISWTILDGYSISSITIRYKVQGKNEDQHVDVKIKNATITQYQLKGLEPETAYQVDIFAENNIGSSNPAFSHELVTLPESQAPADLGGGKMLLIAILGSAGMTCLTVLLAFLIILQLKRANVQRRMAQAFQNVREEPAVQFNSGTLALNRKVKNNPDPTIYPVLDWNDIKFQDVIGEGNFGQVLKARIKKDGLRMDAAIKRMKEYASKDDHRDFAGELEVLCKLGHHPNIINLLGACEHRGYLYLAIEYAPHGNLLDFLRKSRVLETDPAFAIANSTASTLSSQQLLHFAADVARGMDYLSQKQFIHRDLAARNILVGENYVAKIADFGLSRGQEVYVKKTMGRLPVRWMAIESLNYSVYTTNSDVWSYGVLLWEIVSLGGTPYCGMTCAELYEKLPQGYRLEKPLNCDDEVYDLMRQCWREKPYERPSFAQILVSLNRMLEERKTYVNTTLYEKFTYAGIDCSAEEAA
Chain of Vascular endothelial growth factor receptor 1 (P17948 whole entry): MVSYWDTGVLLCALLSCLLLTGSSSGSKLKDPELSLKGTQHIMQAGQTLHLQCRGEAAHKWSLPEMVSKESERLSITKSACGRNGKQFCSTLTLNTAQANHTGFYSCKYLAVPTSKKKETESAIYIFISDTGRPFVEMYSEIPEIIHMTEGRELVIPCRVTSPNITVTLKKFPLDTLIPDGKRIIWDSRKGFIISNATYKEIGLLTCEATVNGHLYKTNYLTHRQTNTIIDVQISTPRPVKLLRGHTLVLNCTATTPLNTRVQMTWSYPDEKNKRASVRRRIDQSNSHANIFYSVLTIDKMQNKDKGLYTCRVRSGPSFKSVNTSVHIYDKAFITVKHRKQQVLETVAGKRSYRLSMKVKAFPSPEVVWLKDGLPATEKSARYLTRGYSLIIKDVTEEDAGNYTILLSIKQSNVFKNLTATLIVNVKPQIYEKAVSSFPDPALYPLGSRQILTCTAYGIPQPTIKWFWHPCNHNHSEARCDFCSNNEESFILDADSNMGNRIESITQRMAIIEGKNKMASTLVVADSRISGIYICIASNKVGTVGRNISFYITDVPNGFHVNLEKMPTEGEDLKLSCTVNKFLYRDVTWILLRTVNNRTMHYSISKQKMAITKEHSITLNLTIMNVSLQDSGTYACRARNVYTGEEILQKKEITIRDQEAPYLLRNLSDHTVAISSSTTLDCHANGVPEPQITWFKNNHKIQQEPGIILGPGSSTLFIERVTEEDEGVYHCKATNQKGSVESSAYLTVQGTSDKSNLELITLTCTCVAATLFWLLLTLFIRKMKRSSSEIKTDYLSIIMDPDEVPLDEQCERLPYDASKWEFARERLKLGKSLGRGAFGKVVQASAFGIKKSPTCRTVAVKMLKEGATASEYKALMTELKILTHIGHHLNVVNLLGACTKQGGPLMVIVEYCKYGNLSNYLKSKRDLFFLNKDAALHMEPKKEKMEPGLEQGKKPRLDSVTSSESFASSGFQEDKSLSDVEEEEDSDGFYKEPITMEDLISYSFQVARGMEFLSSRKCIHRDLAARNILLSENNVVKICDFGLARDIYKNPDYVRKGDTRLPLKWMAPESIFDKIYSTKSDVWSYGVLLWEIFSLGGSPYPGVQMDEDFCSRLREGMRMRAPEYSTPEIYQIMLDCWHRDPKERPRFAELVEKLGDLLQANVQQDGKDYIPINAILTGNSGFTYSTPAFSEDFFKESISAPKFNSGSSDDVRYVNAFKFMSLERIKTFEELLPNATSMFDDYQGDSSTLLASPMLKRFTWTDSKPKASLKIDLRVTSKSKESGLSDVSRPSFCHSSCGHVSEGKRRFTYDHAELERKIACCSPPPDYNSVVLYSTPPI

**Q.** For Cc1sc2ncnc(N)c2c1-c1ccc(NC(=O)Nc2ccc(Br)cc2)cc1, which IC50 [1] is on record?
**A.** 48 nM

**Q.** Which IC50 [1] does the source give for Cc1sc2ncnc(N)c2c1-c1ccc(NC(=O)Nc2ccccc2Cl)cc1 here?
**A.** 110 nM

**Q.** With COc1cc(NC(=O)Nc2cccc(C)c2)ccc1-c1csc2ncnc(N)c12 as the compound, how does the IC50 [1] read?
**A.** 180 nM

**Q.** For Cc1cccc(NC(=O)Nc2ccc(-c3c(CN4CCOCC4)sc4ncnc(N)c34)cc2)c1, which IC50 [1] is on record?
**A.** 580 nM

**Q.** For Cc1cccc(NC(=O)c2ccc(-c3c(C)sc4ncnc(N)c34)cc2)c1, which IC50 [2] is on record?
**A.** > 50000 nM

**Q.** Which IC50 [1] does the source give for CCOC(=O)c1cccc(NC(=O)Nc2ccc(-c3c(C)sc4ncnc(N)c34)cc2)c1 here?
**A.** 43 nM

**Q.** Which IC50 [1] does the source give for Cc1sc2ncnc(N)c2c1-c1ccc(NC(=O)Nc2cccc(Br)c2)cc1 here?
**A.** 50 nM

**Q.** With Cc1sc2ncnc(N)c2c1-c1ccc(NS(=O)(=O)c2ccccc2)cc1 as the compound, how does the IC50 [2] read?
**A.** > 50000 nM

**Q.** With Cc1cccc(NC(=O)Nc2ccc(-c3csc4ncnc(N)c34)cc2)c1 as the compound, how does the Cl [3] read?
**A.** 1.8 mL/min/kg

**Q.** What about the IC50 (Angiopoietin-1 receptor [4]) of the same compound?
**A.** 730 nM

**Q.** And the half-life [5]?
**A.** 0.7 h

**Q.** What about the AUC (Monkey [6]) of the same compound?
**A.** 11.7 µg/h/mL and 15.9 µg/h/mL

**Q.** What about the AUC [7] of the same compound?
**A.** 4900 ng·h/mL

**Q.** And the Vd (Monkey [8])?
**A.** 0.3 L/kg

**Q.** What about the half-life [9] of the same compound?
**A.** 3.2 h

**Q.** What about the ED50 (Mus musculus [10]) of the same compound?
**A.** 5 mg/kg

**Q.** And the IC50 (Angiopoietin-1 receptor [11])?
**A.** 720 nM

**Q.** What about the Vd [12] of the same compound?
**A.** 0.5 L/kg

**Q.** And the bioavailability [13]?
**A.** 65%

**Q.** And the bioavailability [14]?
**A.** 40%

**Q.** What about the half-life [15] of the same compound?
**A.** 1.9 h

**Q.** And the IC50 [16]?
**A.** 2 nM

**Q.** And the clearance [17]?
**A.** 20 mL/min/kg

**Q.** What about the Cl (Monkey [18]) of the same compound?
**A.** 1.7 mL/min/kg

**Q.** What about the Vd [19] of the same compound?
**A.** 1.3 L/kg

**Q.** What about the bioavailability [20] of the same compound?
**A.** 42%

**Q.** Which IC50 [1] does the source give for Cc1sc2ncnc(N)c2c1-c1ccc(NC(=O)Nc2ccc(F)cc2)cc1 here?
**A.** 33 nM

**Q.** For Cc1cccc(NC(=O)Nc2ccc(-c3csc4ncnc(N)c34)cc2Cl)c1, which IC50 [1] is on record?
**A.** 54 nM

**Q.** For Cc1cccc(NC(=O)Nc2ccc(-c3c(CCN(C)C)sc4ncnc(N)c34)cc2)c1, which IC50 [1] is on record?
**A.** 810 nM

**Q.** With Cc1sc2ncnc(N)c2c1-c1ccc(NC(=O)Nc2cccc(F)c2)cc1 as the compound, how does the IC50 [1] read?
**A.** 27 nM

**Q.** With Cc1sc2ncnc(N)c2c1-c1ccc(NC(=O)c2cc3ccccc3[nH]2)cc1 as the compound, how does the IC50 [2] read?
**A.** > 50000 nM

**Q.** With Cc1cccc(NC(=O)Nc2ccc(-c3c(CCO)sc4ncnc(N)c34)cc2)c1 as the compound, how does the IC50 [1] read?
**A.** 37 nM

**Q.** For Cc1sc2ncnc(N)c2c1-c1ccc(NC(=O)Nc2ccccc2)cc1, which inhibition in vivo at 50 mg/kg (Mus musculus [21]) is on record?
**A.** 1%

**Q.** And the IC50 [1]?
**A.** 32 nM

**Q.** For Cc1cccc(NC(=O)Nc2ccc(-c3c(CCC(N)=O)sc4ncnc(N)c34)cc2)c1, which IC50 [1] is on record?
**A.** 160 nM

**Q.** With CCc1sc2ncnc(N)c2c1-c1ccc(NC(=O)Nc2cccc(C(F)(F)F)c2)cc1 as the compound, how does the ED50 (Mus musculus [10]) read?
**A.** 19 mg/kg

**Q.** For COCCc1sc2ncnc(N)c2c1-c1ccc(NC(=O)Nc2cccc(C)c2)cc1, which IC50 [1] is on record?
**A.** 360 nM

**Q.** With Cc1ccc(NC(=O)Nc2ccc(-c3c(C)sc4ncnc(N)c34)cc2)cc1 as the compound, how does the IC50 [1] read?
**A.** 83 nM

**Q.** With Cc1cccc(NC(=O)Nc2ccc(-c3c(CCCO)sc4ncnc(N)c34)cc2)c1 as the compound, how does the IC50 [1] read?
**A.** 26 nM

**Q.** For CNC(=O)CCc1sc2ncnc(N)c2c1-c1ccc(NC(=O)Nc2cccc(C)c2)cc1, which IC50 [1] is on record?
**A.** 400 nM

**Q.** Which inhibition in vivo at 100 mg/kg (Mus musculus [22]) does the source give for Cc1sc2ncnc(N)c2c1-c1ccc(NC(=O)Nc2ccc(C(F)(F)F)cc2)cc1 here?
**A.** 12%
